Test system: 415267-285-R-J2-PDC complex spheroid viability
Test: Anticancer human tumor 415267-285-R-J2-PDC patient-derived breast carcinoma cell line growth inhibition [POLQ]
Conditions: for IC50: curve of first compound; for viability, T/C: stronger effect = lower value
Procedure, shortened: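 PDC + HUVEC + MSC complex spheroids; POLQ inhibitors ± partner drugs; top conc. at/near clinical Cmax, else 10 microM (SN-38 1 microM), half-log dilutions; 37 degrees C, 5% CO2.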
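Note: spheroids exposed to compounds for one week before readout.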
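Throughout, for viability, T/C: luminescence used as stand-in measure of viable cells; 100% = DMSO vehicle control viability.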

In the case of `CC(=O)O[C@H]1C(=O)[C@@]2(C)[C@H]([C@H](OC(=O)c3ccccc3)[C@]3(O)C[C@H](OC(=O)[C@H](O)[C@@H](NC(=O)c4ccccc4)c4ccccc4)C(C)=C1C3(C)C)[C@]1(OC(C)=O)CO[C@@H]1C[C@@H]2O` + Nc1ccc(C#CCN(C(=O)Cc2ncc(C(F)(F)F)cc2C(F)(F)F)c2ccc(F)cc2)nn1, the IC50 (second compound 0.0316 µM) is reported as less than 9.49 nM, the IC50 (second compound 0.1 µM) is reported as less than 9.49 nM and the IC50 (second compound 0.316 µM) is reported as less than 9.49 nM. It also gave an IC50 (second compound 1 µM) of less than 9.49 nM, an IC50 (second compound 3.16 µM) of less than 9.49 nM and an IC50 (second compound 10 µM) of less than 9.49 nM. It also gave a viability, T/C (second compound 0.0316 µM, first compound 0.00949 µM) of 16.4%, a viability, T/C (second compound 0.0316 µM, first compound 0.03 µM) of 11.2% and a viability, T/C (second compound 0.0316 µM, first compound 0.0949 µM) of 7.8%. The viability, T/C (second compound 0.0316 µM, first compound 0.3 µM) was 12.3%, the viability, T/C (second compound 0.0316 µM, first compound 0.949 µM) was 7.65% and the viability, T/C (second compound 0.0316 µM, first compound 3 µM) was 9.67%. For the same compound, the viability, T/C (second compound 0.1 µM, first compound 0.00949 µM) was 28.2%, the viability, T/C (second compound 0.1 µM, first compound 0.03 µM) was 10.1% and the viability, T/C (second compound 0.1 µM, first compound 0.0949 µM) was 7.84%. For the same compound, the viability, T/C (second compound 0.1 µM, first compound 0.3 µM) was 8.82%, the viability, T/C (second compound 0.1 µM, first compound 0.949 µM) was 5.94% and the viability, T/C (second compound 0.1 µM, first compound 3 µM) was 7.04%. For the same compound, the viability, T/C (second compound 0.316 µM, first compound 0.00949 µM) was 25.4%, the viability, T/C (second compound 0.316 µM, first compound 0.03 µM) was 10.4% and the viability, T/C (second compound 0.316 µM, first compound 0.0949 µM) was 8.11%. It also gave a viability, T/C (second compound 0.316 µM, first compound 0.3 µM) of 6.83%, a viability, T/C (second compound 0.316 µM, first compound 0.949 µM) of 6.61% and a viability, T/C (second compound 0.316 µM, first compound 3 µM) of 9.16%. For the same compound, the viability, T/C (second compound 1 µM, first compound 0.00949 µM) was 17.4%, the viability, T/C (second compound 1 µM, first compound 0.03 µM) was 9.17% and the viability, T/C (second compound 1 µM, first compound 0.0949 µM) was 6.64%. It also gave a viability, T/C (second compound 1 µM, first compound 0.3 µM) of 8.77%, a viability, T/C (second compound 1 µM, first compound 0.949 µM) of 7.65% and a viability, T/C (second compound 1 µM, first compound 3 µM) of 7.96%. For the same compound, the viability, T/C (second compound 3.16 µM, first compound 0.00949 µM) was 14.3%, the viability, T/C (second compound 3.16 µM, first compound 0.03 µM) was 10% and the viability, T/C (second compound 3.16 µM, first compound 0.0949 µM) was 8.75%. It also gave a viability, T/C (second compound 3.16 µM, first compound 0.3 µM) of 6.53%, a viability, T/C (second compound 3.16 µM, first compound 0.949 µM) of 7.79% and a viability, T/C (second compound 3.16 µM, first compound 3 µM) of 7.72%. For the same compound, the viability, T/C (second compound 10 µM, first compound 0.00949 µM) was 13.3%, the viability, T/C (second compound 10 µM, first compound 0.03 µM) was 9.57% and the viability, T/C (second compound 10 µM, first compound 0.0949 µM) was 8.39%. It also gave a viability, T/C (second compound 10 µM, first compound 0.3 µM) of 9.61%, a viability, T/C (second compound 10 µM, first compound 0.949 µM) of 8.58% and a viability, T/C (second compound 10 µM, first compound 3 µM) of 8.25%.
For `CC[C@@]1(O)C(=O)OCc2c1cc1n(c2=O)Cc2cc3c(CN(C)C)c(O)ccc3nc2-1` + Nc1ccc(C#CCN(C(=O)Cc2ncc(C(F)(F)F)cc2C(F)(F)F)c2ccc(F)cc2)nn1, the IC50 (second compound 0.0316 µM) was 24.2 nM, the IC50 (second compound 0.1 µM) was 23.2 nM and the IC50 (second compound 0.316 µM) was 25.8 nM. The IC50 (second compound 1 µM) was 24.3 nM, the IC50 (second compound 3.16 µM) was 22.5 nM and the IC50 (second compound 10 µM) was 23.8 nM. The viability, T/C (second compound 0.0316 µM, first compound 0.000316 µM) was 102%, the viability, T/C (second compound 0.0316 µM, first compound 0.001 µM) was 101% and the viability, T/C (second compound 0.0316 µM, first compound 0.00316 µM) was 98.6%. For the same compound, the viability, T/C (second compound 0.0316 µM, first compound 0.01 µM) was 93.3%, the viability, T/C (second compound 0.0316 µM, first compound 0.0316 µM) was 37% and the viability, T/C (second compound 0.0316 µM, first compound 0.1 µM) was 8.63%. For the same compound, the viability, T/C (second compound 0.1 µM, first compound 0.000316 µM) was 116%, the viability, T/C (second compound 0.1 µM, first compound 0.001 µM) was 102% and the viability, T/C (second compound 0.1 µM, first compound 0.00316 µM) was 96.8%. The viability, T/C (second compound 0.1 µM, first compound 0.01 µM) was 98.2%, the viability, T/C (second compound 0.1 µM, first compound 0.0316 µM) was 32.5% and the viability, T/C (second compound 0.1 µM, first compound 0.1 µM) was 8.01%. The viability, T/C (second compound 0.316 µM, first compound 0.000316 µM) was 115%, the viability, T/C (second compound 0.316 µM, first compound 0.001 µM) was 98.2% and the viability, T/C (second compound 0.316 µM, first compound 0.00316 µM) was 94.2%. The viability, T/C (second compound 0.316 µM, first compound 0.01 µM) was 105%, the viability, T/C (second compound 0.316 µM, first compound 0.0316 µM) was 38.5% and the viability, T/C (second compound 0.316 µM, first compound 0.1 µM) was 5.29%. The viability, T/C (second compound 1 µM, first compound 0.000316 µM) was 120%, the viability, T/C (second compound 1 µM, first compound 0.001 µM) was 96.2% and the viability, T/C (second compound 1 µM, first compound 0.00316 µM) was 98.8%. The viability, T/C (second compound 1 µM, first compound 0.01 µM) was 101%, the viability, T/C (second compound 1 µM, first compound 0.0316 µM) was 33.4% and the viability, T/C (second compound 1 µM, first compound 0.1 µM) was 7.54%. For the same compound, the viability, T/C (second compound 3.16 µM, first compound 0.000316 µM) was 107%, the viability, T/C (second compound 3.16 µM, first compound 0.001 µM) was 103% and the viability, T/C (second compound 3.16 µM, first compound 0.00316 µM) was 97.6%. It also gave a viability, T/C (second compound 3.16 µM, first compound 0.01 µM) of 115%, a viability, T/C (second compound 3.16 µM, first compound 0.0316 µM) of 26.7% and a viability, T/C (second compound 3.16 µM, first compound 0.1 µM) of 9.06%. For the same compound, the viability, T/C (second compound 10 µM, first compound 0.000316 µM) was 113%, the viability, T/C (second compound 10 µM, first compound 0.001 µM) was 106% and the viability, T/C (second compound 10 µM, first compound 0.00316 µM) was 98.9%. For the same compound, the viability, T/C (second compound 10 µM, first compound 0.01 µM) was 104%, the viability, T/C (second compound 10 µM, first compound 0.0316 µM) was 32.2% and the viability, T/C (second compound 10 µM, first compound 0.1 µM) was 8.26%.
